Measured values taken from US20090124672A1 (priority 2007, published 2009).

Biological target: T1, hALDH2 (recombinant human mitochondria ALDH) (Homo sapiens, UniProt P05091)
T1 sequence (P05091 18-517): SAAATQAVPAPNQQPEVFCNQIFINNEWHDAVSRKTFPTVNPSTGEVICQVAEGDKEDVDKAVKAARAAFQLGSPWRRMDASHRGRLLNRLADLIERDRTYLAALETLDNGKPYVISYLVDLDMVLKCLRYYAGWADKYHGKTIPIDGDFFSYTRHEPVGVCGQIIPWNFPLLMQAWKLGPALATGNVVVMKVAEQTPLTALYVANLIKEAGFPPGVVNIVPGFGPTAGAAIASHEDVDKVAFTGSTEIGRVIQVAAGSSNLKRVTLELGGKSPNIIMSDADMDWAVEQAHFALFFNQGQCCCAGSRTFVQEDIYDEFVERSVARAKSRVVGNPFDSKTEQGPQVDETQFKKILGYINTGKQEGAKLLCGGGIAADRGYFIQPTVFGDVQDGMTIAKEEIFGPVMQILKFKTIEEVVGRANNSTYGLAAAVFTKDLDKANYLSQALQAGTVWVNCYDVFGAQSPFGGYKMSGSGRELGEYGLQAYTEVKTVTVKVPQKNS
Test: ALDH2 inhibition assay (NADH formation, formaldehyde substrate)
Assay type: biochemical
Details: for inhibition at 1 µM: read-out: hALDH2 inhibition (IC50 hALDH2 column)
Description: ALDH2 inhibition assays were performed in sodium phosphate buffer (50 mM, pH 7.4) containing 1.2 mM NAD^+ (Sigma N7004), 1 nM hALDH2 (recombinant human mitochondria ALDH), various concentrations of test compounds (from 0.03 nM to 1000 nM), and 0.15 mM freshly prepared formaldehyde solution (Ladd Research 20295). Reactions were initiated by the addition of formaldehyde and rates were recorded by monitoring NADH formation in a temperature controlled (25° C.) FluoroMax-2 Fluorimeter with excitation and emission wavelengths set at 340 and 460 nm, respectively. […] Normally, IC50 values were determined by fitting concentration-inhibition data to sigmoidal dose-response curves with two-floating parameters: IC50 and Hill coefficient. When tight binding situation was suspected, apparent Ki values were estimated by fitting dose-response data to Morrison's equation [Methods in Enzymology 63, 437-467, 1979].

Row | inhibition at 1 µM [%] | IC50 [nM] | Molecule
1 | 47 |  | CO/N=C(\N)c1ccc(-c2coc3cc(OCc4cccc(C(=O)OC)c4)ccc3c2=O)cc1 [PT-50, methyl 3-({3-[4-((1Z)-1-amino-2-methoxy-2-azavinyl)phenyl]-4-oxochromen-7-yloxy}methyl)benzoate]
2 |  | 12 | CCOC(=O)c1cnn(CCOc2ccc3c(=O)c(-c4ccc(O)cc4)coc3c2)c1 [PT-122, ethyl 1-{2-[3-(4-hydroxyphenyl)-4-oxochromen-7-yloxy]ethyl}pyrazole-4-carboxylate]
3 |  | 7 | O=c1c(-c2ccc(O)cc2)coc2cc(OCc3nnc(-c4cccnc4)o3)ccc12 [PT-110, 3-(4-hydroxyphenyl)-7-[(5-(3-pyridyl)(1,3,4-oxadiazol-2-yl))methoxy]chromen-4-one]
4 |  | 60 | O=c1c(-c2ccc(O)cc2)coc2cc(OCc3coc(-c4cc(F)cc(F)c4)n3)ccc12 [PT-14, 7-{[2-(3,5-difluorophenyl)(1,3-oxazol-4-yl)]methoxy}-3-(4-hydroxyphenyl)chromen-4-one]
5 |  | 25 | CS(=O)(=O)Nc1ccc(-c2coc3cc(OCc4cnc(-c5ccc(C(F)(F)F)cc5)s4)ccc3c2=O)cc1 [PT-83, 3-{4-[(methylsulfonyl)amino]phenyl}-7-({2-[4-(trifluoromethyl)phenyl](1,3-thiazol-5-yl)}methoxy)chromen-4-one]
6 |  | 100 | O=c1c(-c2ccc(O)cc2)coc2cc(OCc3noc(-c4ccc(F)c(C(F)(F)F)c4)n3)ccc12 [PT-30, 7-({5-[4-fluoro-3-(trifluoromethyl)phenyl](1,2,4-oxadiazol-3-yl)}methoxy)-3-(4-hydroxyphenyl)chromen-4-one]
7 |  | 10 | 3-(4-hydroxyphenyl)-7-[(6-pyrazolyl(3-pyridyl))methoxy]chromen-4-one [PT-52]
8 |  | 38 | O=c1c(-c2ccc(O)cc2)coc2cc(OCc3nc(-c4cccc(C(F)(F)F)c4)no3)ccc12 [PT-115, 3-(4-hydroxyphenyl)-7-({3-[3-(trifluoromethyl)phenyl](1,2,4-oxadiazol-5-yl)}methoxy)chromen-4-one]
9 |  | 22 | N#Cc1cccc(-c2nc(COc3ccc4c(=O)c(-c5ccc(O)cc5)coc4c3)no2)c1 [PT-40, 3-(3-{[3-(4-hydroxyphenyl)-4-oxochromen-7-yloxy]methyl}-1,2,4-oxadiazol-5-yl)benzenecarbonitrile]
10 |  | 110 | 7-{3-[4-(4-chlorophenyl)pyrazolyl]propoxy}-3-(4-hydroxyphenyl)chromen-4-one [PT-106]
11 |  | 16 | O=C(O)c1cnc(COc2ccc3c(=O)c(-c4ccc(O)cc4)coc3c2)o1 [PT-49, 2-{[3-(4-hydroxyphenyl)-4-oxochromen-7-yloxy]methyl}-1,3-oxazole-5-carboxylic acid]
12 |  | 20 | CC(C)OC(=O)c1cccc(COc2ccc3c(=O)c(-c4ccc(O)cc4)coc3c2)c1 [PT-35, methylethyl 3-{[3-(4-hydroxyphenyl)-4-oxochromen-7-yloxy]methyl}benzoate]
13 |  | 3 | O=c1c(-c2ccc(O)cc2)coc2cc(OCc3coc(-c4cccc(C(F)(F)F)c4)n3)ccc12 [PT-12, 3-(4-hydroxyphenyl)-7-({2-[3-(trifluoromethyl)phenyl](1,3-oxazol-4-yl)}methoxy)chromen-4-one]
14 |  | 20 | O=c1c(-c2ccc(O)cc2)coc2cc(OCc3coc(-c4cc(F)cc(C(F)(F)F)c4)n3)ccc12 [PT-13, 7-({2-[5-fluoro-3-(trifluoromethyl)phenyl](1,3-oxazol-4-yl)}methoxy)-3-(4-hydroxyphenyl)chromen-4-one]
15 |  | 20 | O=c1c(-c2ccc(O)cc2)coc2cc(OCc3noc(-c4cc(C(F)(F)F)ccc4C(F)(F)F)n3)ccc12 [PT-31, 7-({5-[2,5-bis(trifluoromethyl)phenyl](1,2,4-oxadiazol-3-yl)}methoxy)-3-(4-hydroxyphenyl)chromen-4-one]
16 |  | 58 | O=c1c(-c2ccc(O)cc2)coc2cc(OCc3cc(F)cc(C(F)(F)F)c3)ccc12 [PT-28, 7-{[3-fluoro-5-(trifluoromethyl)phenyl]methoxy}-3-(4-hydroxyphenyl)chromen-4-one]
17 |  | 68 | COc1ccc2c(COc3ccc4c(=O)c(-c5ccc(O)cc5)coc4c3)cc(=O)oc2c1 [PT-119, 4-{[3-(4-hydroxyphenyl)-4-oxochromen-7-yloxy]methyl}-7-methoxychromen-2-one]

Row | inhibition at 1 µM [%] | IC50 [nM] | Molecule
18 |  | 180 | N#Cc1ccc(-c2coc3cc(OCc4cc(-c5cccc(C(F)(F)F)c5)no4)ccc3c2=O)cc1 [PT-69, 4-[4-oxo-7-({3-[3-(trifluoromethyl)phenyl]isoxazol-5-yl}methoxy)chromen-3-yl]benzenecarbonitrile]
19 |  | 573 | O=c1c(-c2ccc(O)cc2)coc2cc(OCc3coc(-c4ccc(Cl)cc4)n3)ccc12 [PT-17, 7-{[2-(4-chlorophenyl)(1,3-oxazol-4-yl)]methoxy}-3-(4-hydroxyphenyl)chromen-4-one]
20 |  | 140 | CS(=O)(=O)Nc1ccc(-c2coc3cc(OCc4noc(-c5ccc(F)cc5)n4)ccc3c2=O)cc1 [PT-48, 7-{[5-(4-fluorophenyl)(1,2,4-oxadiazol-3-yl)]methoxy}-3-{4-[(methylsulfonyl)amino]-phenyl}chromen-4-one]
21 |  | 380 | NC(=O)c1ccc(COc2ccc3c(=O)c(-c4ccc(O)cc4)coc3c2)cc1 [PT-37, 4-{[3-(4-hydroxyphenyl)-4-oxochromen-7-yloxy]methyl}benzamide]
22 |  | 1150 | C=CCOC(=O)c1cccc(-c2nc(COc3ccc4c(=O)c(-c5ccc(O)cc5)coc4c3)no2)c1 [PT-32, prop-2-enyl 3-(3-{[3-(4-hydroxyphenyl)-4-oxochromen-7-yloxy]methyl}-1,2,4-oxadiazol-5-yl)benzoate]
23 | 10 |  | O=c1c(-c2ccc(OCc3ccc(C(F)(F)F)nc3)cc2)coc2cc(OCc3cncc(C(F)(F)F)c3)ccc12 [PT-46, 7-{[5-(trifluoromethyl)(3-pyridyl)]methoxy}-3-(4-{[6-(trifluoromethyl)(3-pyridyl)]methoxy}phenyl)chromen-4-one]
24 |  | 20 | O=c1c(-c2ccc(O)cc2)coc2cc(OCc3cncc(C(F)(F)F)c3)ccc12 [PT-94, 3-(4-hydroxyphenyl)-7-{[5-(trifluoromethyl)(3-pyridyl)]methoxy}chromen-4-one]
25 | 24 |  | N#Cc1cc(-c2coc3cc(OCc4noc(-c5cc(F)cc(C(F)(F)F)c5)n4)ccc3c2=O)ccc1F [PT-9, 2-fluoro-5-[7-({5-[5-fluoro-3-(trifluoromethyl)phenyl](1,2,4-oxadiazol-3-yl)}methoxy)-4-oxochromen-3-yl]benzenecarbonitrile]
26 |  | 600 | O=c1c(-c2ccc(O)cc2)coc2cc(OCc3noc(-c4ccc(C(F)(F)F)cc4)n3)ccc12 [PT-38, 3-(4-hydroxyphenyl)-7-({5-[4-(trifluoromethyl)phenyl](1,2,4-oxadiazol-3-yl)}methoxy)chromen-4-one]
27 |  | 139 | O=C(COc1ccc2c(=O)c(-c3ccc(O)cc3)coc2c1)c1cccc(F)c1 [PT-78, 7-[2-(3-fluorophenyl)-2-oxoethoxy]-3-(4-hydroxyphenyl)chromen-4-one]
28 |  | 20 | COc1ccc(-c2nc(COc3ccc4c(=O)c(-c5ccc(O)cc5)coc4c3)no2)cc1C(F)(F)F
29 |  | 62 | O=c1c(-c2ccc(O)cc2)coc2cc(OCc3noc(-c4cccc(F)c4)n3)ccc12 [PT-42, 7-{[5-(3-fluorophenyl)(1,2,4-oxadiazol-3-yl)]methoxy}-3-(4-hydroxyphenyl)chromen-4-one]
30 |  | 72 | O=c1c(-c2ccc(O)cc2)coc2cc(OCc3cc(-c4cc(C(F)(F)F)cc(C(F)(F)F)c4)on3)ccc12 [PT-62, 7-({5-[3,5-bis(trifluoromethyl)phenyl]isoxazol-3-yl}methoxy)-3-(4-hydroxyphenyl)chromen-4-one]
31 | 0.19 |  | Cc1ccc(S(=O)(=O)Nc2ccc(-c3coc4cc(OCc5sc(-c6ccc(C(F)(F)F)cc6)nc5C)ccc4c3=O)cc2)cc1 [PT-5, 3-(4-{[(4-methylphenyl)sulfonyl]amino}phenyl)-7-({4-methyl-2-[4-(trifluoromethyl)phenyl](1,3-thiazol-5-yl)}methoxy)chromen-4-one]
32 |  | 5 | O=c1c(-c2ccc(O)cc2)coc2cc(OCNCc3cccc(C(F)(F)F)c3)ccc12 [PT-54, 3-(4-hydroxyphenyl)-7-[({[3-(trifluoromethyl)phenyl]methyl}amino)methoxy]chromen-4-one]
33 | 16 |  | COC(=O)c1cccc(COc2ccc3c(=O)c(-c4ccc(OC)nc4)coc3c2)c1 [PT-6, methyl 3-{[3-(6-methoxy(3-pyridyl))-4-oxochromen-7-yloxy]methyl}benzoate]
34 |  | 32 | O=c1c(-c2ccc(O)cc2)coc2cc(OCc3nc(-c4cccnc4)no3)ccc12 [PT-114, 3-(4-hydroxyphenyl)-7-[(3-(3-pyridyl)(1,2,4-oxadiazol-5-yl))methoxy]chromen-4-one]
